The test system of the first assay is PC-14. Nature of the assay: relative viability (nuclei count vs DMSO), 5 days (fraction); higher = more cells survive. As to conditions: first compound 0.6325 µM. A digest of the protocol: (§1)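 Dosing by pin tool came one day after lung cancer cell lines were seeded in 1536-well plates, using either one drug or a fixed anchor-drug dose plus five library-drug doses (not always all listed) in √10 steps. After 5 days, nuclei were counted on 4× images. Relative viability is treated-well nuclei count divided by vehicle-well nuclei count, and values are medians of duplicate plates.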
Regarding `COCC1(CO)C(=O)C2CCN1CC2` (stereo not drawn) [PRIMA-1MET] + CCNC(=O)c1noc(-c2cc(C(C)C)c(O)cc2O)c1-c1ccc(CN2CCOCC2)cc1 [Luminespib] (partner 0.01 µM), the relative viability is 0.176.
`COCC1(CO)C(=O)C2CCN1CC2` (stereo not drawn) [PRIMA-1MET] + COc1cccc2cc(-c3nc([C@H]4CC[C@H](C(=O)O)CC4)n4ncnc(N)c34)[nH]c12 [OSI-027] (partner 0.5 µM): the relative viability worked out at 0.779.
Consider `COCC1(CO)C(=O)C2CCN1CC2` (stereo not drawn) [PRIMA-1MET] + N=C(N)NC(=N)NCCc1ccccc1 [Phenformin] (partner 250 µM), for which the relative viability worked out at 0.503.
On the same count and under the same terms, to `COCC1(CO)C(=O)C2CCN1CC2` (stereo not drawn) [PRIMA-1MET] + Nc1nc2[nH]cc(CCc3ccc(C(=O)N[C@@H](CCC(=O)O)C(=O)O)cc3)c2c(=O)[nH]1 [Pemetrexed] (partner 0.2 µM) belongs 0.148; to `COCC1(CO)C(=O)C2CCN1CC2` (stereo not drawn) [PRIMA-1MET] + Cc1nc(Nc2ncc(C(=O)Nc3c(C)cccc3Cl)s2)cc(N2CCN(CCO)CC2)n1 [Dasatinib] (partner 0.075 µM), 0.249.

Still in this assay, the particulars now being: first compound 2 µM.
In the case of `COCC1(CO)C(=O)C2CCN1CC2` (stereo not drawn) [PRIMA-1MET] + CCNC(=O)c1noc(-c2cc(C(C)C)c(O)cc2O)c1-c1ccc(CN2CCOCC2)cc1 [Luminespib] (partner 0.01 µM), the relative viability was 0.169.
For `COCC1(CO)C(=O)C2CCN1CC2` (stereo not drawn) [PRIMA-1MET] + COc1cccc2cc(-c3nc([C@H]4CC[C@H](C(=O)O)CC4)n4ncnc(N)c34)[nH]c12 [OSI-027] (partner 0.5 µM), the relative viability stood at 0.975.
On the same count and under the same terms, to `COCC1(CO)C(=O)C2CCN1CC2` (stereo not drawn) [PRIMA-1MET] + N=C(N)NC(=N)NCCc1ccccc1 [Phenformin] (partner 250 µM) belongs 0.735; to `COCC1(CO)C(=O)C2CCN1CC2` (stereo not drawn) [PRIMA-1MET] + Nc1nc2[nH]cc(CCc3ccc(C(=O)N[C@@H](CCC(=O)O)C(=O)O)cc3)c2c(=O)[nH]1 [Pemetrexed] (partner 0.2 µM), 0.114; to `COCC1(CO)C(=O)C2CCN1CC2` (stereo not drawn) [PRIMA-1MET] + Cc1nc(Nc2ncc(C(=O)Nc3c(C)cccc3Cl)s2)cc(N2CCN(CCO)CC2)n1 [Dasatinib] (partner 0.075 µM), 0.276.

The assay is the same for the next values; noted with them: first compound 6.325 µM.
The compound `COCC1(CO)C(=O)C2CCN1CC2` (stereo not drawn) [PRIMA-1MET] + CCNC(=O)c1noc(-c2cc(C(C)C)c(O)cc2O)c1-c1ccc(CN2CCOCC2)cc1 [Luminespib] (partner 0.01 µM) showed a relative viability of 0.182.
Still for that read-out and setting: to `COCC1(CO)C(=O)C2CCN1CC2` (stereo not drawn) [PRIMA-1MET] + COc1cccc2cc(-c3nc([C@H]4CC[C@H](C(=O)O)CC4)n4ncnc(N)c34)[nH]c12 [OSI-027] (partner 0.5 µM) belongs 0.848.
`COCC1(CO)C(=O)C2CCN1CC2` (stereo not drawn) [PRIMA-1MET] + N=C(N)NC(=N)NCCc1ccccc1 [Phenformin] (partner 250 µM) had a relative viability of 0.379.
For `COCC1(CO)C(=O)C2CCN1CC2` (stereo not drawn) [PRIMA-1MET] + Nc1nc2[nH]cc(CCc3ccc(C(=O)N[C@@H](CCC(=O)O)C(=O)O)cc3)c2c(=O)[nH]1 [Pemetrexed] (partner 0.2 µM), the relative viability came to 0.148.
Same read-out and setting: for `COCC1(CO)C(=O)C2CCN1CC2` (stereo not drawn) [PRIMA-1MET] + Cc1nc(Nc2ncc(C(=O)Nc3c(C)cccc3Cl)s2)cc(N2CCN(CCO)CC2)n1 [Dasatinib] (partner 0.075 µM) the value was 0.249.

The assay is the same for the next values; noted with them: first compound 20 µM.
For `COCC1(CO)C(=O)C2CCN1CC2` (stereo not drawn) [PRIMA-1MET] + CCNC(=O)c1noc(-c2cc(C(C)C)c(O)cc2O)c1-c1ccc(CN2CCOCC2)cc1 [Luminespib] (partner 0.01 µM), the relative viability is 0.129.
On the same count and under the same terms, to `COCC1(CO)C(=O)C2CCN1CC2` (stereo not drawn) [PRIMA-1MET] + COc1cccc2cc(-c3nc([C@H]4CC[C@H](C(=O)O)CC4)n4ncnc(N)c34)[nH]c12 [OSI-027] (partner 0.5 µM) belongs 0.0163.
For `COCC1(CO)C(=O)C2CCN1CC2` (stereo not drawn) [PRIMA-1MET] + N=C(N)NC(=N)NCCc1ccccc1 [Phenformin] (partner 250 µM), the relative viability turned out to be 0.0559.
Still for that read-out and setting: for `COCC1(CO)C(=O)C2CCN1CC2` (stereo not drawn) [PRIMA-1MET] + Nc1nc2[nH]cc(CCc3ccc(C(=O)N[C@@H](CCC(=O)O)C(=O)O)cc3)c2c(=O)[nH]1 [Pemetrexed] (partner 0.2 µM) the value was 0.0292; for `COCC1(CO)C(=O)C2CCN1CC2` (stereo not drawn) [PRIMA-1MET] + Cc1nc(Nc2ncc(C(=O)Nc3c(C)cccc3Cl)s2)cc(N2CCN(CCO)CC2)n1 [Dasatinib] (partner 0.075 µM), 0.0176.

A further assay relates to NCI-H727. Described as above. As to conditions: first compound 0.2 µM. A digest of the protocol:
as §1
As for `COCC1(CO)C(=O)C2CCN1CC2` (stereo not drawn) [PRIMA-1MET] + CCNC(=O)c1noc(-c2cc(C(C)C)c(O)cc2O)c1-c1ccc(CN2CCOCC2)cc1 [Luminespib] (partner 0.01 µM), the relative viability was determined as 0.615.
On the same count and under the same terms, to `COCC1(CO)C(=O)C2CCN1CC2` (stereo not drawn) [PRIMA-1MET] + COc1cccc2cc(-c3nc([C@H]4CC[C@H](C(=O)O)CC4)n4ncnc(N)c34)[nH]c12 [OSI-027] (partner 0.5 µM) belongs 0.357; to `COCC1(CO)C(=O)C2CCN1CC2` (stereo not drawn) [PRIMA-1MET] + N=C(N)NC(=N)NCCc1ccccc1 [Phenformin] (partner 250 µM), 0.472; to `COCC1(CO)C(=O)C2CCN1CC2` (stereo not drawn) [PRIMA-1MET] + Cc1nc(Nc2ncc(C(=O)Nc3c(C)cccc3Cl)s2)cc(N2CCN(CCO)CC2)n1 [Dasatinib] (partner 0.075 µM), 0.273.

Still in this assay, the particulars now being: first compound 0.6325 µM.
As for `COCC1(CO)C(=O)C2CCN1CC2` (stereo not drawn) [PRIMA-1MET] + CCNC(=O)c1noc(-c2cc(C(C)C)c(O)cc2O)c1-c1ccc(CN2CCOCC2)cc1 [Luminespib] (partner 0.01 µM), the relative viability is 0.328.
Compound `COCC1(CO)C(=O)C2CCN1CC2` (stereo not drawn) [PRIMA-1MET] + COc1cccc2cc(-c3nc([C@H]4CC[C@H](C(=O)O)CC4)n4ncnc(N)c34)[nH]c12 [OSI-027] (partner 0.5 µM) returned a relative viability of 0.371.
Same read-out and setting: to `COCC1(CO)C(=O)C2CCN1CC2` (stereo not drawn) [PRIMA-1MET] + N=C(N)NC(=N)NCCc1ccccc1 [Phenformin] (partner 250 µM) belongs 0.395; to `COCC1(CO)C(=O)C2CCN1CC2` (stereo not drawn) [PRIMA-1MET] + Cc1nc(Nc2ncc(C(=O)Nc3c(C)cccc3Cl)s2)cc(N2CCN(CCO)CC2)n1 [Dasatinib] (partner 0.075 µM), 0.346.

Still in this assay, the particulars now being: first compound 2 µM.
Take `COCC1(CO)C(=O)C2CCN1CC2` (stereo not drawn) [PRIMA-1MET] + CCNC(=O)c1noc(-c2cc(C(C)C)c(O)cc2O)c1-c1ccc(CN2CCOCC2)cc1 [Luminespib] (partner 0.01 µM): the relative viability was 0.236.
`COCC1(CO)C(=O)C2CCN1CC2` (stereo not drawn) [PRIMA-1MET] + COc1cccc2cc(-c3nc([C@H]4CC[C@H](C(=O)O)CC4)n4ncnc(N)c34)[nH]c12 [OSI-027] (partner 0.5 µM): the relative viability came to 0.498.
Same read-out and setting: for `COCC1(CO)C(=O)C2CCN1CC2` (stereo not drawn) [PRIMA-1MET] + N=C(N)NC(=N)NCCc1ccccc1 [Phenformin] (partner 250 µM) the value was 0.387.
The same measure, in the same setting: for `COCC1(CO)C(=O)C2CCN1CC2` (stereo not drawn) [PRIMA-1MET] + Cc1nc(Nc2ncc(C(=O)Nc3c(C)cccc3Cl)s2)cc(N2CCN(CCO)CC2)n1 [Dasatinib] (partner 0.075 µM) the value was 0.351.

The assay is the same for the next values; noted with them: first compound 6.325 µM.
`COCC1(CO)C(=O)C2CCN1CC2` (stereo not drawn) [PRIMA-1MET] + CCNC(=O)c1noc(-c2cc(C(C)C)c(O)cc2O)c1-c1ccc(CN2CCOCC2)cc1 [Luminespib] (partner 0.01 µM) displayed a relative viability of 0.426.

The record behind these values is the supplement of paper PMC10307832.
